The data set can be described thus: photoluminescence quantum yield (fraction); solvent given as SMILES.
Where [1] appears, read: in O=P(c1ccccc1)(c1ccccc1)c1ccccc1Oc1ccccc1P(=O)(c1ccccc1)c1ccccc1.

SMILES strings stand for the structures.

In the case of `COc1ccc(C2CC(c3ccc(O)cc3)=NN2c2ccc(S(N)(=O)=O)cc2)cc1` (configuration not stated), the photoluminescence quantum yield reads like this: (in C1CCOC1) 0.78; (in C1COCCO1) 0.73; (in CC#N) 0.7; (in CC(C)O) 0.55; (in CCO) 0.47; (in CCOC(C)=O) 0.76. This compound also came in with a photoluminescence quantum yield (in CN(C)C=O) of 0.87, a photoluminescence quantum yield (in CO) of 0.38, a photoluminescence quantum yield (in CS(C)=O) of 0.88 and a photoluminescence quantum yield (in O) of 0.54.
`Cc1c(COC(=O)Cc2c[nH]c3ccccc23)n2c(OCC(=O)Cc3c[nH]c4ccccc34)c(C)c(=O)n2c1=O`: the photoluminescence quantum yield (in CCO) worked out at 0.715.
Consider `Cc1cc(C)c(B(c2c(C)cc(C)cc2C)c2c(C)cc(N3c4ccccc4Oc4ccccc43)cc2C)c(C)c1`, for which the photoluminescence quantum yield runs as follows: (in Cc1ccccc1) 0.44; (in c1ccc2c(c1)c1ccccc1n2-c1ccc(-c2ccc(-n3c4ccccc4c4ccccc43)cc2)cc1) 0.92.
As to `O=C(c1ccc2c3c(sc2c1)-c1ccccc1P3(=O)c1ccccc1)c1c(F)c(F)c(F)c(F)c1F` (configuration not stated), the photoluminescence quantum yield (in ClCCl) is 0.29.
Compound `CN(C)c1ccc(/C=C/c2ccnc(/C=C/c3ccc(N(C)C)cc3)n2)cc1` displayed a photoluminescence quantum yield (in ClCCl) of 0.04.
The compound `c1ccc(/C(=C(\c2ccccc2)c2cc(-c3ccc(-c4ccccc4)cc3)ccc2-c2ccc(-c3ccccc3)cc2)c2cc(-c3ccc(-c4ccccc4)cc3)ccc2-c2ccc(-c3ccccc3)cc2)cc1` came in with a photoluminescence quantum yield (in C1CCOC1) of 0.32.
For `COc1ccc(C2=C(c3ccc(OC)cc3)C(C)(C)c3cc(OC)ccc32)cc1`, the photoluminescence quantum yield (in C1CCCCC1) turned out to be 0.12.
In turn, `Cc1ccc2cc3cc(C)ncc3cc2c1` displayed a photoluminescence quantum yield (in CCO) of 0.48.
Regarding `Nc1ccc2c(c1)C(=O)N(C13C[C@H]4C[C@@H](C1)C[C@@H](C3)C4)C2=O`, the photoluminescence quantum yield runs as follows: (in C1CCCCC1) 0.38; (in C1CCOC1) 0.59; (in CC#N) 0.62; (in CCOC(C)=O) 0.58; (in CO) 0.17; (in CS(C)=O) 0.8. The photoluminescence quantum yield worked out at 0.8 (in Cc1ccccc1) and 0.85 (in ClCCl).
For `COc1ccc2c(c1)CCC1=C(C#Cc3cc4ccccc4c4ccccc34)O[B-](F)(F)[O+]=C12`, the photoluminescence quantum yield (in ClCCl) amounted to 0.425.
Turning to `CCCCC1(CCCC)c2cc(C#Cc3ccc(C=C4c5ccccc5CCc5ccccc54)cc3)ccc2-c2ccc(C#Cc3ccc(C=C4c5ccccc5CCc5ccccc54)cc3)cc21`, the photoluminescence quantum yield (in C1CCOC1) stood at 0.027.
Turning to `N#CC(C#N)=Cc1ccc(-c2ccc(O)c(-c3nc4ccccc4s3)c2)s1`, the photoluminescence quantum yield runs as follows: (in CCO) 0.0198; (in ClCCl) 0.016.
For `O=C(c1ccc(N(c2ccccc2)c2ccccc2)cc1)[C@H]1[C@H](c2cccs2)C[C@](O)(c2ccccn2)C[C@]1(O)c1ccccn1`, the photoluminescence quantum yield (in C1CCOC1) was 0.24; the photoluminescence quantum yield (in CC#N) came out at 0.01; the photoluminescence quantum yield (in CCO) worked out at 0.01; the photoluminescence quantum yield (in CCOC(C)=O) turned out to be 0.35; the photoluminescence quantum yield (in CN(C)C=O) came to 0.02; the photoluminescence quantum yield (in ClCCl) came to 0.22. Also, the photoluminescence quantum yield (in c1ccccc1) turned out to be 0.9.
With `CCCCc1c2c(nc3ccccc13)-c1cc3c(cc1CC2)-c1nc2ccccc2c(CCCC)c1CC3`, the photoluminescence quantum yield (in ClC(Cl)Cl) amounted to 0.697.
With `F[B-]1(F)OC(c2ccccc2)=CC(c2ccccc2)=[O+]1`, the photoluminescence quantum yield was 0.8 (in CC#N) and 0.15 (in ClC(Cl)(Cl)Cl).
In the case of `CCC(CC)COC1=CC2=C3c4cc(OCC(CC)CC)c(-c5ccccc5)n4[B-](F)(F)[n+]4c3n(c3cc(C(C)(C)C)ccc34)[B-](F)(F)[N+]2=C1c1ccccc1`, the photoluminescence quantum yield reads like this: (in C1CCOC1) 0.11; (in ClCCl) 0.13.
Consider `CC1=CC(=[N+]2CCC2)C=C2C1=Nc1c(C)cc(N3CCC3)cc1[Si]2(C)C`, for which the photoluminescence quantum yield reads like this: (in C1COCCO1) 0.11; (in CCO) 0.11; (in O) 0.009; (in OCCO) 0.13.
For the compound `CN(C)c1ccc(-c2cc3c(s2)c(C(=O)c2ccccc2)cc(=O)n3Cc2ccccc2)cc1`, the photoluminescence quantum yield (in ClCCl) stood at 0.01.
As to `c1ccc(-c2ccc(-c3ccc(N(c4ccccc4)c4ccccc4)cc3)c3nsnc23)cc1`, the photoluminescence quantum yield by setting is: (in C1CCOC1) 0.105; (in CC(C)=O) 0.01; (in CCCCCC) 0.492; (in CCOCC) 0.201.
On to `N#Cc1ccc(-n2nc(C#N)c(N3CCCC3)n2)cc1`, for which, where the note is “in CC#N”, the photoluminescence quantum yield came out at 0.579.
Regarding `C=Cc1cccc(OC)c1`, the photoluminescence quantum yield (in C1CCCCC1) is 0.32 and the photoluminescence quantum yield (in CC#N) is 0.28.
For the compound `CC1(C)Nc2cc3nc4cc(Cl)c(Cl)cc4nc3cc2N1`, the photoluminescence quantum yield (in CCO) came out at 0.42.
In the case of `F[B-]1(F)Oc2ccccc2-c2cc(-n3c4ccccc4c4ccccc43)cc[n+]21`, under setting [1], the photoluminescence quantum yield is 0.99.
Under “in ClCCl”, `N#Cc1ccc(N(c2ccc(C#N)cc2)c2ccc3c4cccc5c(N(c6ccc(C#N)cc6)c6ccc(C#N)cc6)ccc(c6cccc2c63)c54)cc1` had a photoluminescence quantum yield of 0.91.
`COc1cccc(C2=CC3=C(c4c(C)cc(C)cc4C)c4cc(-c5cccc(OC)c5)c(-c5cccc(OC)c5)n4[B-](F)(F)[N+]3=C2c2cccc(OC)c2)c1`: the photoluminescence quantum yield reads like this: (in C1CCCCC1) 0.86; (in C1CCOC1) 0.76; (in CC#N) 0.65; (in Cc1ccccc1) 0.78; (in ClCCl) 0.83.
`CCCc1ccc(C#Cc2ccc3nc4ccc(C#Cc5ccc(CCC)cc5)cn4c(=O)c3c2)cc1` had a photoluminescence quantum yield (in ClCCl) of 0.45.
`CC(=O)c1ccc(C#Cc2ccc(-c3cc(N(C)C)c4ccccc4c3)cc2)cc1` displayed a photoluminescence quantum yield (in ClCCl) of 0.03.
Consider `N#Cc1ccc(/C=C2\N=C(c3ccccc3)OC2=O)cc1`, for which the photoluminescence quantum yield (in C1COCCO1) stood at 0.028.
`CCN(CC)c1ccc2cc(-c3cn4cc5ccccc5cc4n3)c(=O)oc2c1` had a photoluminescence quantum yield (in ClC(Cl)Cl) of 0.92.
Compound `COc1ccc(-c2c3ccccc3c(C#Cc3ccccc3)c3cc4ccccc4cc23)cc1` gave a photoluminescence quantum yield (in ClCCl) of 0.6.
Same read-out and setting: under `Cc1ccc(-c2c3nc(c(-c4ccc(C)cc4)c4ccc([nH]4)c(-c4ccc(OC(=O)C(C)c5ccccc5)cc4)c4nc(c(-c5ccc(C)cc5)c5ccc2[nH]5)C=C4)C=C3)cc1` (configuration not stated) stands 0.123; under `Nc1cccc2c1ccc1[n+]2[B-](F)(F)n2c-1cc1c3ccccc3c3ccccc3c12`, 0.1.
In the case of `N#Cc1ccc(Oc2ccc3c4c(cccc24)C(=O)N(CCO)C3=O)cc1`, the photoluminescence quantum yield (in ClC(Cl)Cl) stood at 0.55.
Under “in ClCCl”, `c1ccc(-c2nc(-c3ccc(N4c5ccccc5Oc5ccccc54)cc3)nn2-c2ccc(N3c4ccccc4Oc4ccccc43)cc2)nc1` displayed a photoluminescence quantum yield of 0.11.
`C[Si](C)(C)c1ccc2ccc3c([Si](C)(C)C)ccc4ccc1c2c43`: the photoluminescence quantum yield reads like this: (in CCCCCC) 0.42; (in CO) 0.5; (in ClCCl) 0.5.
`c1ccc2c3c(ccc2c1)-c1cc2ccccc2c2cccc-3c12` yielded a photoluminescence quantum yield (in CCCCCCC) of 0.1.
The compound `COc1ccc(C2=C3C(C)=CC(C)=[N+]3[B-](F)(F)n3c(/C=C/c4ccc(N(C)C)cc4)cc(C)c32)cc1` registered a photoluminescence quantum yield (in C1CCCCC1) of 0.97; a photoluminescence quantum yield (in C1CCOC1) of 0.56; a photoluminescence quantum yield (in C1COCCO1) of 0.77; a photoluminescence quantum yield (in CC1CCCCC1) of 0.86; a photoluminescence quantum yield (in CC#N) of 0.09; a photoluminescence quantum yield (in CC(C)=O) of 0.27. Besides, the photoluminescence quantum yield reads like this: (in CC(C)OC(C)C) 0.87; (in CCC#N) 0.19; (in CCCC#N) 0.27; (in CCCCO) 0.59; (in CCCCOCCCC) 0.91; (in CCOC(C)=O) 0.59. The same compound showed a photoluminescence quantum yield (in CCOCC) of 0.93; a photoluminescence quantum yield (in CN(C)C=O) of 0.08; a photoluminescence quantum yield (in CO) of 0.16; a photoluminescence quantum yield (in CS(C)=O) of 0.056; a photoluminescence quantum yield (in Cc1ccccc1) of 0.85; a photoluminescence quantum yield (in ClC(Cl)Cl) of 0.82.
`COc1ccccc1-c1nc2c3ccccc3c3ccccc3c2n1-c1ccc(C)cc1`: the photoluminescence quantum yield (in Cc1ccccc1) is 0.284.
As to `CC1(C)CC[N+]2=c3c(cc4c(c31)Oc1cc3c(cc1C=4c1ccccc1C(=O)O)C(c1ccccc1C(=O)O)=c1cc4c5c(c1O3)C(C)(C)CC[N+]=5CCC4)CCC2`, under “in ClC(Cl)Cl”, the photoluminescence quantum yield came out at 0.55.
Consider `CC(=O)OC[C@@H]1O[C@H](N2C=CC3=Nc4nc(C)[n+](C)cc4CN3C2=O)[C@@H](O)[C@H]1O`, for which the photoluminescence quantum yield came out at 0.89 (in CC#N), 0.05 (in CCO) and 0.2 (in O).
On to `CCCCc1ccc(C#Cc2ccc3nc4ccc(C#Cc5ccc(CCCC)cc5)cn4c(=O)c3c2)cc1`, for which the photoluminescence quantum yield (in ClCCl) was found to be 0.48.
Under setting [1], `c1ccc(-c2nc(-c3ccc(N4c5ccccc5C(c5ccccc5)(c5ccccc5)c5ccccc54)cc3)cc(-c3ccccn3)n2)cc1` returned a photoluminescence quantum yield of 0.83.
On to `CCCCC(CC)COc1ccc2nc(-c3ccc(-c4ccc(N(C)C)cc4)s3)sc2c1` (configuration not stated), for which the photoluminescence quantum yield (in ClCCl) amounted to 0.94.
Turning to `CC(C)(C)c1ccc2oc(-c3ccc(-c4nc5cc(C(C)(C)C)ccc5o4)s3)nc2c1`, the photoluminescence quantum yield runs as follows: (in C1CCCCC1) 0.8; (in C1CCOC1) 0.78; (in CC1CCCCC1) 0.66; (in CC#N) 0.76; (in CCCCO) 1; (in CCO) 1. Moreover, the photoluminescence quantum yield (in CN(C)C=O) came to 0.87, the photoluminescence quantum yield (in Cc1ccccc1) worked out at 1, the photoluminescence quantum yield (in Clc1ccccc1Cl) was 0.96 and the photoluminescence quantum yield (in c1ccccc1) is 0.82.
In turn, `Nc1ccc2nc(-c3ccccc3)c(=O)oc2c1` gave a photoluminescence quantum yield (in c1ccccc1) of 0.697.
